Data taken from US12171554B2, “Marker monitoring via a medical device” (Medtronic, Inc., priority 2017, dated 2024).

Assay: Fluorophore detection in interstitial fluid (ISF) of rats after IV or PO dosing, subcutaneous optical PMMA fiber and reader device
Conditions: rat, in vivo
Source text: Study Protocol: The purpose of the study was to investigate in an acute or semi-chronic rat trial set-up if fluorophores are detectable in the ISF (InterStitial Fluid) when injected IV or given to the rat Per Oral (PO). Four rat subjects (Rat 001, Rat 002, Rat 003, and Rat 004) were included in the study. The procedure of the study was as follows: Rat subjects were Sprague Dawley rats, male, Diet Induced Obese (DIO). For each rat, the rat was anaesthesized, shaved and cleaned on the back for PMMA optical fiber insertion. A tail venous catheter was placed and two 250 um optical PMMA fibers were placed in the subcutaneous fat tissue of the DIO rat. The base and tape of the sensor unit was sutured to the skin.
For Rats 001 and 002, a reader device suitable for indocyanine green dye detection was mounted. [ . . . ] Rat 002 died during oral dosing while under anesthesia due to lack of swallowing reflex.
For Rats 003 and 004 reader devices suitable for Alexa Fluor 594™ (AF594) detection were mounted. Recording began using RF data transfer (GST protocol, MDT Diabetes). A first IV injection of 0.01 mg AF594 was injected (1 mL into tail vein). Rise and decay of fluorescence was observed before a second injection of 1 mL of 0.01 mg AF594 into the tail vein. Anesthesia then was removed and the rat was placed into a cage. […]

CC1(C)C(/C=C/C=C/C=C/C=C2\N(CCCCS(=O)(=O)O)c3ccc4ccccc4c3C2(C)C)=[N+](CCCCS(=O)(=O)[O-])c2ccc3ccccc3c21 [Indo Cyanine Green]
clearance from the ISF after IV dosing: relatively fast clearance | signal in ISF after IV dosing: distinct signals
